31 molecules from patent publication US20240025883A1, “PYRIMIDIN-2-YL SULFONAMIDE DERIVATIVES” (Hoffmann-La Roche Inc., priority 2021, published 2024) can be followed below.

SMILES strings stand for the structures.

Chain of human GPR17 short isoform (Q13304 29-367): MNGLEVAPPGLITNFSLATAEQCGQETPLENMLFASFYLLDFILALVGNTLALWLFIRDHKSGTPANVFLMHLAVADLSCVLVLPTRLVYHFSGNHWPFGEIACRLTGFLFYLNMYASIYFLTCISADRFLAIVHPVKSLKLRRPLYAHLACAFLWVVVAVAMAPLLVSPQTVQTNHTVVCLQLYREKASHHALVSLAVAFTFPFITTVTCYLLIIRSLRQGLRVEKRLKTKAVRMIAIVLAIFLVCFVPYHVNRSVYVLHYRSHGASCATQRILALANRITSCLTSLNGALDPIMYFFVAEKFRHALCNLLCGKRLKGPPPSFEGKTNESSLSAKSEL

This experiment concerns the target human GPR17 short isoform (Homo sapiens (Human), UniProt Q13304). Briefly: GPR17 cAMP assay (hGPR17 cAMP, antagonist mode against EC80 of MDL29,951). The class given is cell-based. As to conditions: CHO-K1 cells stably expressing human GPR17 short isoform; EC80 of agonist MDL29,951; forskolin 15 μM. As for the experimental part: GPR17 cAMP Assay Protocol:
CHO-K1 cells stably expressing vector containing untagged human GPR17 short isoform (Roche) were cultured at 37° C./5% CO2 in DMEM (Dulbecco's Modified Eagle Medium):F-12 (1:1) supplemented with 10% foetal bovine serum and 400 μg/ml Geneticin.
Changes in intracellular cyclic adenosine monophosphate (cAMP) levels were quantified using the Nano-TRF Detection Assay kit (Roche Diagnostics, Cat. No. 05214386001). This assay allows for direct cAMP quantification in a homogeneous solution, cAMP is detected based on time-resolved fluorescence energy transfer (TR-FRET) and competitive binding of ruthenylated cAMP and endogenous cAMP to an anti-cAMP monoclonal antibody labeled with AlexaFluor-700. The Ruthenium complex serves as the FRET donor and transfers energy to AlexaFluor-700. The FRET signal is inversely proportional to the cAMP concentration.
CHO-GPR17S cells were detached with Accutase and resuspended in assay buffer consisting of Hank's Balanced Salt Solution (HBSS), 10 mM HEPES (4-(2-hydroxyethyl) piperazine-1-ethanesulfonic acid solution) and 0.1% bovine serum albumin (pH 7.4). The cells were seeded in black 384-well plates (Corning) at a density of 10,000 cells/20 μl assay buffer until the addition of compounds.
Test antagonist compounds were serially diluted in dimethyl sulfoxide (DMSO) and spotted in 384-well plates. The compounds were then diluted in HBSS buffer supplemented with an EC80 concentration of MDL29,951 (3-(2-Carboxy-4,6-dichloroindol-3-yl)propionic acid) (GPR17 agonist) plus 3-Isobutyl-1-methylxanthine (IBMX) (0.5 mM final concentration) and added to the cells at room temperature. Forskolin (15 μM final concentration) was added 5 minutes after the test compounds and the cells were incubated at room temperature for 30 minutes. The assay was stopped by adding cAMP detection mix (containing detergents for cell lysis) for 90 minutes at room temperature.
Cellular cAMP was measured using a Paradigm reader (Molecular Devices). The raw data was used to calculate the FRET signal based on the assay's P-factor as per cAMP kit instructions. The data was normalized to the maximal activity of a reference antagonist and dose response curves were fitted to the percent activity of the test compounds using a sigmoidal dose response model (Genedata Screener).
Consider `COc1nc(NS(=O)(=O)c2c[nH]c3nc(Br)ccc23)nc(OC)c1CCC#N` [Example 113, 6-bromo-N-[5-(2-cyanoethyl)-4,6-dimethoxy-pyrimidin-2-yl]-1H-pyrrolo[2,3-b]pyridine-3-sulfonamide], for which the IC50 stood at 21 nM.

The molecule `COc1nc(NS(=O)(=O)c2c[nH]c3cc(Cl)ccc23)nc(OC)c1CC(C)(F)F` [Example 63, 6-chloro-N-[5-(2,2-difluoropropyl)-4,6-dimethoxy-pyrimidin-2-yl]-1H-indole-3-sulfonamide] showed an IC50 of 182 nM.

Turning to `COc1nc(NS(=O)(=O)c2csc3cc(Br)ccc23)ncc1OCCF` [Example 158, 6-bromo-N-[5-(2-fluoroethoxy)-4-methoxy-pyrimidin-2-yl]benzothiophene-3-sulfonamide], the IC50 was 47 nM.

`COc1nc(NS(=O)(=O)c2c[nH]c3cc(Br)ccc23)ncc1CCC#N` [Example 89, 6-bromo-N-[5-(2-cyanoethyl)-4-methoxy-pyrimidin-2-yl]-1H-indole-3-sulfonamide]: the IC50 was found to be 212 nM.

`COc1nc(NS(=O)(=O)c2c[nH]c3nc(Cl)ccc23)nc(OC)c1CC(F)CF` (stereo not shown) [Example 289, 6-Chloro-N-[5-(2,3-Difluoropropyl)-4,6-Dimethoxy-Pyrimidin-2-Yl]-1H-Pyrrolo[2,3-b]Pyridine-3-Sulfonamide] yielded an IC50 of 69 nM.

Molecule `COc1nc(NS(=O)(=O)c2c[nH]c3cc(Cl)ccc23)ncc1OCC#N` [Example 267, 6-chloro-N-[5-(cyanomethoxy)-4-methoxy-pyrimidin-2-yl]-1H-indole-3-sulfonamide] registered an IC50 of 49 nM.

As to `COc1nc(NS(=O)(=O)c2c[nH]c3c(F)c(Br)ccc23)nc(OC)c1OCC#N` [Example 244, 6-bromo-N-[5-(cyanomethoxy)-4,6-dimethoxy-pyrimidin-2-yl]-7-fluoro-1H-indole-3-sulfonamide], the IC50 came to 16 nM.

Regarding `COc1nc(NS(=O)(=O)c2c[nH]c3nc(Br)ccc23)nc(OC)c1OC(F)(F)CF` [Example 110, 6-bromo-N-[4,6-dimethoxy-5-(1,1,2-trifluoroethoxy)pyrimidin-2-yl]-1H-pyrrolo[2,3-b]pyridine-3-sulfonamide], the IC50 was found to be 25 nM.

For the molecule `COc1nc(NS(=O)(=O)c2csc3nc(Br)ccc23)nc(OC)c1CCC#N` [Example 151, 6-bromo-N-[5-(2-cyanoethyl)-4,6-dimethoxy-pyrimidin-2-yl]thieno[2,3-b]pyridine-3-sulfonamide], the 50% inhibitory concentration (IC50) amounted to 29 nM.

`COc1nc(NS(=O)(=O)c2c[nH]c3cc(Br)ccc23)ncc1OCC(F)F` [Example 143, 6-bromo-N-[5-(2,2-difluoroethoxy)-4-methoxy-pyrimidin-2-yl]-1H-indole-3-sulfonamide] displayed an IC50 of 109 nM.

The molecule `COc1nc(NS(=O)(=O)c2c[nH]c3c(Cl)cccc23)ncc1CC(F)F` [Example 108, 7-chloro-N-[5-(2,2-difluoroethyl)-4-methoxy-pyrimidin-2-yl]-1H-indole-3-sulfonamide] returned an IC50 of 642 nM.

Molecule `COc1nc(NS(=O)(=O)c2c[nH]c3c(Cl)c(Cl)ccc23)ncc1CCC(F)F` [Example 211, 6,7-dichloro-N-[5-(3,3-difluoropropyl)-4-methoxy-pyrimidin-2-yl]-1H-indole-3-sulfonamide] yielded an IC50 of 30 nM.

`COc1nc(NS(=O)(=O)c2c[nH]c3c(OC4CC4)c(Cl)ccc23)ncc1CCC(F)F` [Example 212, 6-chloro-7-(cyclopropoxy)-N-[5-(3,3-difluoropropyl)-4-methoxy-pyrimidin-2-yl]-1H-indole-3-sulfonamide] registered an IC50 of 45 nM.

Regarding `COc1nc(NS(=O)(=O)c2c[nH]c3nc(Br)ccc23)nc(OC)c1OCC#N` [Example 114, 6-bromo-N-[5-(cyanomethoxy)-4,6-dimethoxy-pyrimidin-2-yl]-1H-pyrrolo[2,3-b]pyridine-3-sulfonamide], the IC50 stood at 45 nM.

For the molecule `COc1nc(NS(=O)(=O)c2c[nH]c3c(Cl)c(Cl)ccc23)ncc1OCCF` [Example 3, 6,7-dichloro-N-[5-(2-fluoroethoxy)-4-methoxy-pyrimidin-2-yl]-1H-indole-3-sulfonamide], the IC50 amounted to 50 nM.

On to `COc1nc(NS(=O)(=O)c2c[nH]c3cc(C(F)F)ccc23)ncc1OCCF` [Example 235, 6-(difluoromethyl)-N-[5-(2-fluoroethoxy)-4-methoxy-pyrimidin-2-yl]-1H-indole-3-sulfonamide], for which the IC50 came out at 32 nM.

For `COc1nc(NS(=O)(=O)c2c[nH]c3c(OCF)c(Cl)ccc23)ncc1CC(F)F` [Example 198, 6-chloro-N-[5-(2,2-difluoroethyl)-4-methoxy-pyrimidin-2-yl]-7-(fluoromethoxy)-1H-indole-3-sulfonamide], the IC50 is 36 nM.

Take `COc1nc(NS(=O)(=O)c2c[nH]c3c(Cl)c(F)ccc23)ncc1CC(F)F` [Example 130, 7-chloro-N-[5-(2,2-difluoroethyl)-4-methoxy-pyrimidin-2-yl]-6-fluoro-1H-indole-3-sulfonamide]: the IC50 is 386 nM.

In turn, `COc1nc(NS(=O)(=O)c2c[nH]c3c(CO)c(C)ccc23)ncc1CC(F)F` [Example 292, N-[5-(2,2-Difluoroethyl)-4-Methoxy-Pyrimidin-2-Yl]-6-Methyl-7-Methylol-1H-Indole-3-Sulfonamide] had an IC50 of 433 nM.

With `COc1nc(NS(=O)(=O)c2c[nH]c3nc(C(F)F)ccc23)nc(OC)c1CCC#N` [Example 239, N-[5-(2-cyanoethyl)-4,6-dimethoxy-pyrimidin-2-yl]-6-(difluoromethyl)-1H-pyrrolo[2,3-b]pyridine-3-sulfonamide], the IC50 stood at 46 nM.

In the case of `COc1nc(NS(=O)(=O)c2csc3nc(Br)ccc23)ncc1CCC#N` [Example 149, 6-bromo-N-[5-(2-cyanoethyl)-4-methoxy-pyrimidin-2-yl]thieno[2,3-b]pyridine-3-sulfonamide], the IC50 is 147 nM.

The molecule `COc1nc(NS(=O)(=O)c2c[nH]c3cc(Cl)ccc23)nc(OC)c1OCC#N` [Example 265, 6-chloro-N-[5-(cyanomethoxy)-4,6-dimethoxy-pyrimidin-2-yl]-1H-indole-3-sulfonamide] displayed an IC50 of 14 nM.

Molecule `COc1nc(NS(=O)(=O)c2c[nH]c3cc(Cl)ccc23)nc(OC)c1OCC1COC1` [Example 263, 6-chloro-N-[4,6-dimethoxy-5-(oxetan-3-ylmethoxy)pyrimidin-2-yl]-1H-indole-3-sulfonamide] showed an IC50 of 2060 nM.

The molecule `COc1nc(NS(=O)(=O)c2csc3cc(Cl)ccc23)ncc1CC(F)F` [Example 154, 6-chloro-N-[5-(2,2-difluoroethyl)-4-methoxy-pyrimidin-2-yl]benzothiophene-3-sulfonamide] gave an IC50 of 45 nM.

Regarding `COc1nc(NS(=O)(=O)c2c[nH]c3cc(F)ccc23)ncc1CC(F)F` [Example 140, N-[5-(2,2-difluoroethyl)-4-methoxy-pyrimidin-2-yl]-6-fluoro-1H-indole-3-sulfonamide], the IC50 is 50 nM.

With `COc1nc(NS(=O)(=O)c2c[nH]c3c(SC(F)F)c(Cl)ccc23)nc(OC)c1CCC#N` [Example 107, 6-chloro-N-[5-(2-cyanoethyl)-4,6-dimethoxy-pyrimidin-2-yl]-7-(difluoromethylthio)-1H-indole-3-sulfonamide], the IC50 was found to be 12 nM.

On to `COc1nc(NS(=O)(=O)c2c[nH]c3c(N(C)C)c(Cl)ccc23)nc(OC)c1CC(F)F` [Example 115, 6-chloro-N-[5-(2,2-difluoroethyl)-4,6-dimethoxy-pyrimidin-2-yl]-7-(dimethylamino)-1H-indole-3-sulfonamide], for which the IC50 is 26 nM.

For the molecule `COc1nc(NS(=O)(=O)c2c[nH]c3nc(Br)ccc23)nc(OC)c1Br` [Example 30, 6-bromo-n-(5-bromo-4,6-dimethoxy-pyrimidin-2-yl)-1h-pyrrolo[2,3-b]pyridine-3-sulfonamide], the IC50 amounted to 43 nM.

The molecule `COc1nc(NS(=O)(=O)c2c[nH]c3cc(Cl)ccc23)nc(C)c1CC(F)F` [Example 78, 6-chloro-N-[5-(2,2-difluoroethyl)-4-methoxy-6-methyl-pyrimidin-2-yl]-1H-indole-3-sulfonamide] showed an IC50 of 244 nM.

Turning to `COc1nc(NS(=O)(=O)c2c[nH]c3c2ccc2scnc23)ncc1CC(F)F` [Example 290, N-[5-(2,2-Difluoroethyl)-4-Methoxy-Pyrimidin-2-Yl]-8H-Pyrrolo[2,3-e][1.3]Benzothiazole-6-Sulfonamide], the IC50 stood at 405 nM.

`COc1nc(NS(=O)(=O)c2c[nH]c3c(F)c(Cl)ccc23)ncc1OC(F)(F)CF` [Example 215, 6-chloro-7-fluoro-N-[4-methoxy-5-(1,1,2-trifluoroethoxy)pyrimidin-2-yl]-1H-indole-3-sulfonamide]: the IC50 worked out at 28 nM.
